Assays:
[1] = system: ovariectomized osteoporosis rat model; assay: non-targeted serum metabolomics (UPLC/Q-TOF-MS); assay type: in vivo, SD rats; settings: ES group vs Model group
Description: 1, the construction of ovariectomized rats models: SD rats are kept in a clean environment under a controlled room temperature at 25±2° C. and alternates 12/12 light and dark every day, and the SD rats feed freely. After one week adaptive feeding, randomly select 8 female rats, anesthetize them with 1% (v/v) pentobarbital sodium (40 mg/kg BW), and remove a little fat near ovaries. The remaining 40 rats are ovariectomized after being anesthetized with pentobarbital sodium. The recovery situation is observed in a 4-week recovery period, and their weight changes are detected. These are prepared by the applicant in advance. (any research about metabolic fingerprint changes of ovariectomized osteoporotic rats after intervention with bone peptide have not been reported according to the existing literature).
2, animal grouping and samples collection: the 8 female rats with a little fat near ovaries removed are selected as a sham-operated group, the ovariectomized 40 rats are randomly divided into 5 groups with 8 rats in each group, and are named by a negative control group, a positive control group, a low-concentration treatment group, a medium-concentration treatment group and a high-concentration treatment group. The rats are perfused by different solutions of bovine bone peptide (diluted by ultrapure water, and sterilized) with concentration of 100 mg/kg, 200 mg/kg, and 500 mg/kg according to the weights of the rats. The rats in the negative control group are perfused with equal volume of ultrapure sterile water (a perfusing volume is generally 1-2 mL/100 g BW), and the rats in the positive control group are perfused with 50 μg/kg of 17β-estradiol (ES). Observe weight changes of the rats and measure the weights every two weeks.
Urine is automatically collected with a metabolic cage for 12 hours every 4 weeks (the urine is collected as much as possible under the premise of ensuring normal signs of the rats). 1 mmol/L NaN3 solution is added into collected urine as a preservative, the collected urine is placed in a centrifuge at 4° C. and centrifuged at a speed of 10000×g for 10 minutes, and the supernatant is collected, distributed and stored in a refrigerator at −80° C. for determining. The rats are fasted for 12 hours at 4th week, 8th week, and 12th week. Fasted rats are anesthetized by intraperitoneal injection of pentobarbital sodium (40 mg/kg BW) with a volume concentration of 1%, and are subjected to blood collection from the abdominal aorta (the blood is collected as much as possible under the premise of ensuring normal signs of the rats). Collected blood is placed at 4° C. for 3 h and is centrifuged (5000 rpm) for 10 minutes. Upper serum is collected (collecting 2 mL of blood, separating into 4 tubes after separating the serum), is divided into 0.5 mL EP tubes, and stored in a refrigerator at −80° C. for later use. The metabolic cage comprises a cage body with a bottom and a metabolite collecting part. The metabolite collecting part is arranged below the cage body and comprises a barrel 1 and a cover 2 mounted on an upper end of a peripheral wall of a first side of the barrel, an upper end of a peripheral wall of a second side of the barrel is provided with a drainage port, and a solid-liquid separating part is arranged in the barrel. The solid-liquid separating part comprises an arc-shaped partition plate 3 with a first end fixed with a peripheral wall of the barrel and multi-stage filter plates 4, which divide an inner space of the barrel into a first accommodating space and a second accommodating space. The multi-stage filter plates are arranged in the second accommodating space along a vertical direction, and the multi-stage filter plates are successively arranged end to end to form a folded-line diversion channel. A depth of a bottom wall of the barrel from the first side to the second side becomes larger. […]

[2] = system: ovariectomized osteoporosis rat model; assay: Micro-CT of right femurs; assay type: in vivo, SD rats; settings: vs Model group
Description: 1, the construction of ovariectomized rats models: SD rats are kept in a clean environment under a controlled room temperature at 25±2° C. and alternates 12/12 light and dark every day, and the SD rats feed freely. After one week adaptive feeding, randomly select 8 female rats, anesthetize them with 1% (v/v) pentobarbital sodium (40 mg/kg BW), and remove a little fat near ovaries. The remaining 40 rats are ovariectomized after being anesthetized with pentobarbital sodium. The recovery situation is observed in a 4-week recovery period, and their weight changes are detected. These are prepared by the applicant in advance. (any research about metabolic fingerprint changes of ovariectomized osteoporotic rats after intervention with bone peptide have not been reported according to the existing literature). 2, animal grouping and samples collection: the 8 female rats with a little fat near ovaries removed are selected as a sham-operated group, the ovariectomized 40 rats are randomly divided into 5 groups with 8 rats in each group, and are named by a negative control group, a positive control group, a low-concentration treatment group, a medium-concentration treatment group and a high-concentration treatment group. The rats are perfused by different solutions of bovine bone peptide (diluted by ultrapure water, and sterilized) with concentration of 100 mg/kg, 200 mg/kg, and 500 mg/kg according to the weights of the rats. The rats in the negative control group are perfused with equal volume of ultrapure sterile water (a perfusing volume is generally 1-2 mL/100 g BW), and the rats in the positive control group are perfused with 50 μg/kg of 17β-estradiol (ES). Observe weight changes of the rats and measure the weights every two weeks. After perfusing experiment, the rats are sacrificed in accordance with the animal welfare operating procedures, femurs and tibias on both sides are taken, and soft tissues such as muscle and fascia attached to bone tissues are removed. The right tibias are subjected to paraffin-embedded H&E staining treatment after fixing in a phosphate-formalin buffer for 24 hours for morphometric analysis of the tibias of the rats. Left femurs and right femurs is soaked with normal saline, washed repeatedly for 3 times, wrapped with medical gauzes (pre-soaked with normal saline) and tinfoil, and then stored in a −20° C. refrigerator for trabecular bone microstructure (micro-CT scanning) and mechanical strength tests of bone biomechanical indexes (three-point bending test). In the screening method of the biomarkers in the anti-osteoporosis activity of bone peptide, the specific implementation steps of determining biomechanical indexes of the right femurs of the rats by the Micro-CT method are as follows: determining femur microstructures by Micro Computed Tomography (Micro-CT, Inveon-type, SIEMENS, Germany) with scanning parameters: a span voltage of 80 kV, a scanning current of 500 μA, and a scanning thickness (resolution) of […] Region of interest (ROI) of femurs starts from 1 mm below a bone tissue growth-plate. Scan the layers downward and sequentially. Select the bone tissue with a thickness of 100 layers as cancellous ROI for three-dimensional reconstruction to obtain a visualized 3D image. The obtained scanning data are subjected to morphometric calculation of femur tissues using Inveon Research Workplace software (SIEMENS, Germany). […]

C[C@]12CC[C@@H]3c4ccc(O)cc4CC[C@H]3[C@@H]1CC[C@@H]2O [ES, 17β-estradiol]
serum 1-O-(cis-9-octadecenyl)-2-O-acetyl-sn-glycerol-3-phosphocholine change [1]: up-regulated trend | serum 1-oleoyl-sn-glycerol-3-phosphocholine change [1]: up-regulated trend | serum 1-palmitoyl-sn-glycerol-3-phosphocholine change [1]: up-regulated trend | serum 1-stearoyl-sn-glycerol-3-phosphocholine change [1]: up-regulated trend | serum L-palmitoyl change [1]: up-regulated trend | serum L-pyroglutamic acid change [1]: down-regulated trend | serum isoleucine-arginine change [1]: down-regulated trend | serum pantothenic acid change [1]: up-regulated trend | osteoporosis of the rats (three dimensional reconstruction of femur bone microstructures) ([2]; after treatment): improved to a certain extent | bone volume fraction (BV/TV) ([2]; right femur): on a rise trend | trabecular bone density (Tb.BMD) ([2]; right femur): on a rise trend | trabecular bone number (Tb.N) ([2]; right femur): on a rise trend | trabecular bone thickness (Tb.Th) ([2]; right femur): on a rise trend

Reference: patent US20220308068A1, “BIOMARKER IN OSTEOPOROSIS INTERVENTION THERAPY BY BONE PEPTIDE, SCREENING METHOD AND USE THEREOF” (Institute of Food Science and Technology, Chinese Academy …, priority 2019, published 2022)
